In ChEMBL document CHEMBL3045748, “A novel and eco-friendly procedure for the synthesis of some pyrazolo-thiadiazolo-pyrimidinones and its in vitro anti-bacterial activity” (2012):

Legend:
Type in all cases: functional
Details in all cases: read-out: DIZ
[1] = tested on: Bacillus subtilis; assay: Antibacterial activity against Bacillus subtilis at 50 ug after 18 hr by Kirby-Bauer's disk diffusion assay
[2] = tested on: Klebsiella; assay: Antibacterial activity against Klebsiella at 50 ug after 18 hr by Kirby-Bauer's disk diffusion assay
[3] = tested on: Staphylococcus aureus; assay: Antibacterial activity against Staphylococcus aureus at 50 ug after 18 hr by Kirby-Bauer's disk diffusion assay
[4] = tested on: Escherichia coli; assay: Antibacterial activity against Escherichia coli at 50 ug after 18 hr by Kirby-Bauer's disk diffusion assay

SMILES | zone of inhibition at 50 µg/disc [1] | zone of inhibition at 50 µg/disc [2] | zone of inhibition at 50 µg/disc [3] | zone of inhibition at 50 µg/disc [4]
O=c1c2cnn(-c3ccccc3)c2nc2sc(CNCc3ccco3)nn12 | 18.5 mm | 13 mm | 20 mm | 8.5 mm
O=c1c2cnn(-c3ccccc3)c2nc2sc(CN3CCOCC3)nn12 | 7 mm | 14.5 mm | 7.5 mm | 9 mm
O=c1c2cnn(-c3ccccc3)c2nc2sc(CNc3ccccc3)nn12 | 14 mm | 12.5 mm | 14.5 mm | 10.5 mm
Cc1cccc(NCc2nn3c(=O)c4cnn(-c5ccccc5)c4nc3s2)c1 | 17 mm | 12 mm | 16.5 mm | 9.5 mm
COc1ccc(NCc2nn3c(=O)c4cnn(-c5ccccc5)c4nc3s2)cc1 | 15.5 mm | 14 mm | 15.5 mm | 11.5 mm
CNCc1nn2c(=O)c3cnn(-c4ccccc4)c3nc2s1 | 6.5 mm | 11.5 mm | 13.5 mm | 11 mm
CCNCc1nn2c(=O)c3cnn(-c4ccccc4)c3nc2s1 | 16 mm | 12 mm | 18.5 mm | 10.5 mm
CCCCCCNCc1nn2c(=O)c3cnn(-c4ccccc4)c3nc2s1 | 20.5 mm | 11.5 mm | 17.5 mm | 11 mm
CC1(C)S[C@@H]2[C@H](NC(=O)[C@H](N)c3ccccc3)C(=O)N2[C@H]1C(=O)O [AMPICILLIN] | 23.3 mm | 24.5 mm | 22.5 mm | 18.5 mm
